Article PMC10787698, “Discovery and biocatalytic characterization of opine dehydrogenases by metagenome mining” (Applied Microbiology and Biotechnology, 2024)
Substitutions are numbered along the chain they refer to. In names and notes the source's numbering stands. Where two headings read alike, the source gives them in different places.

Legend:
mODH-45 = test system: T1, mODH-45; assay: NAD(P)H absorbance at […] nm, Michaelis-Menten; format: biochemical, hot spring metagenome; conditions: pyruvate 10 mM, 100 mM sodium phosphate pH 8.0, 30 °C
T1 construct: N-terminal His-tag, pET14b, E. coli BL21(DE3); codon-optimised synthetic gene; source reads SRR16606022; one of 11 TPA records BK063522-BK063532 (not assigned singly)

mODH-582 [1] = test system: T2, mODH-582; assay: NAD(P)H absorbance at […] nm, Michaelis-Menten; format: biochemical, hot spring metagenome; conditions: pyruvate 10 mM, 100 mM sodium phosphate pH 8.0, 30 °C
T2 construct: N-terminal His-tag, pET14b, E. coli BL21(DE3); codon-optimised synthetic gene; source reads SRR16606022; one of 11 TPA records BK063522-BK063532 (not assigned singly)

mODH-47 = test system: T3, mODH-47; assay: NAD(P)H absorbance at […] nm, Michaelis-Menten; format: biochemical, hot spring metagenome; conditions: pyruvate 10 mM, 100 mM sodium phosphate pH 8.0, 30 °C
T3 construct: N-terminal His-tag, pET14b, E. coli BL21(DE3); codon-optimised synthetic gene; source reads SRR16606022; one of 11 TPA records BK063522-BK063532 (not assigned singly)

mODH-55 = test system: T4, mODH-55; assay: NAD(P)H absorbance at […] nm, Michaelis-Menten; format: biochemical, hot spring metagenome; conditions: pyruvate 10 mM, 100 mM sodium phosphate pH 8.0, 30 °C
T4 construct: N-terminal His-tag, pET14b, E. coli BL21(DE3); codon-optimised synthetic gene; source reads SRR16606022; one of 11 TPA records BK063522-BK063532 (not assigned singly)

mODH-49 = test system: T5, mODH-49; assay: NAD(P)H absorbance at […] nm, Michaelis-Menten; format: biochemical, hot spring metagenome; conditions: pyruvate 10 mM, 100 mM sodium phosphate pH 8.0, 30 °C
T5 construct: N-terminal His-tag, pET14b, E. coli BL21(DE3); codon-optimised synthetic gene; source reads SRR16606022; one of 11 TPA records BK063522-BK063532 (not assigned singly)

mODH-48 = test system: T6, mODH-48; assay: NAD(P)H absorbance at […] nm, Michaelis-Menten; format: biochemical, hot spring metagenome; conditions: pyruvate 10 mM, 100 mM sodium phosphate pH 8.0, 30 °C
T6 construct: N-terminal His-tag, pET14b, E. coli BL21(DE3); codon-optimised synthetic gene; source reads SRR16606022; one of 11 TPA records BK063522-BK063532 (not assigned singly); identical to an obsolete UniParc entry

mODH-582 [2] = test system: T2, mODH-582; assay: NAD(P)H absorbance at […] nm, Michaelis-Menten; format: biochemical, hot spring metagenome; conditions: pyruvate 10 mM, NAD(P)H 0.2 mM, 100 mM sodium phosphate pH 8.0, 30 °C; read-out: L-Phe / KM
purified protein [3] = substrate: N[C@@H](Cc1ccccc1)C(=O)O; assay: purified protein; format: biochemical, Arthrobacter sp. 1C; conditions: pyruvate 10 mM, NAD(P)H 0.2 mM, 100 mM sodium phosphate pH 8.0, 30 °C
[4] = substrate: N[C@@H](Cc1ccccc1)C(=O)O; assay: purified protein, by the assay type; set-up: Michaelis-Menten kinetics of reductive amination with pyruvate, NAD(P)H consumption by absorbance at 340 nm, 30 °C, pH 8.0
Procedure: (§1) Enzyme activities were measured spectrophotometrically at 30 °C in 96-well half-area plates in a Thermo Scientific™ Multiskan SkyHigh Microplate Spectrophotometer (Thermo Fisher Scientific Inc., Waltham, MA, USA). Standard assays were carried out by using 15 mM amino acid and 0.2 mM NAD(P)H in 100 mM sodium phosphate buffer (pH = 8.0). The reaction was started by the addition of 10 mM pyruvate. The decrease in absorbance was monitored at 340 nm. Initial velocities (v0) were calculated from the linear section of the plots using an NAD(P)H calibration. For the determination of kinetic constants, amino acid concentrations were varied between 1 and 30 mM, while cofactor concentrations were between 0.04 and 0.5 mM. Depending on the specific activities of each enzyme, enzyme concentrations were fixed between 0.015 and 1.5 µM (Tables S9-S12). Kinetic constants were determined from the Michaelis–Menten plots using GraphPad Prism software (Tables S9-S12, Figures S15-S18). Heat stability experiments were carried out by incubating the enzymes at 40, 50, or 60 °C for 1 h before measuring their specific activities. Nine selected mODH genes as well as the coding sequence of ArODH were codon optimized for E. coli, synthesized by Genescript and cloned into pET14b vector using NdeI and BamHI cloning sites resulting in N-terminal His-tag proteins (for protein and nucleotide sequences see Table S2). Plasmids were transformed into E.coli BL21(DE3) chemically competent cells, and 5 mL overnight cultures were grown in Luria–Bertani (LB) medium supplemented with carbenicillin. Then, 4 mL was added to 500 mL fresh LB medium. The culture was grown at 37 °C to OD = 0.5 and induced by addition of 0.5 mM IPTG. The flasks were then incubated in a shaker at 18 °C overnight. The cells were harvested by centrifugation at 4000 rpm, 4 °C for 30 min. The pellets were resuspended in lysis buffer (50 mM Tris pH = 8.5, 300 mM NaCl, 1 mM benzamidine, 2 mM [compound left out] [compound left out], 1 mM Tris(2-carboxyethyl)phosphine (TCEP), DNase) and lysed by ultrasonication. The suspension was centrifuged at 11,000 rpm, 4 °C for 30 min. The supernatant was loaded onto equilibrated Ni–NTA column and washed with 15 mM imidazole in lysis buffer. The bound protein was eluted with 250 mM imidazole in lysis buffer and then dialyzed in 50 mM Tris pH = 8.5. The resulting solution was aliquoted after addition of 10% glycerol and then stored at − 20 °C until further use. Total protein concentration was determined based on absorption at 280 nm measured on a NanoDrop spectrophotometer. With this method, six mODHs and ArODH could be purified (see Table S2). Three mODHs were not expressed in soluble form in this experimental setting.

[5] = substrate: NC(=O)C1=CN([C@@H]2O[C@H](COP(=O)(O)OP(=O)(O)OC[C@H]3O[C@@H](n4cnc5c(N)ncnc54)[C@H](O)[C@@H]3O)[C@@H](O)[C@H]2O)C=CC1; assay: purified protein, by the assay type; set-up: Michaelis-Menten kinetics of reductive amination with pyruvate, NAD(P)H consumption by absorbance at 340 nm, 30 °C, pH 8.0
Procedure: as §1

purified protein [6] = substrate: N[C@@H](CC(=O)O)C(=O)O; assay: purified protein; conditions: pyruvate 10 mM, NAD(P)H 0.2 mM, 100 mM sodium phosphate pH 8.0, 30 °C
[7] = NAD(P)H 0.2 mM, read-out: L-Asp / KM
[8] = L-Asp 15 mM, read-out: NADPH / KM
[9] = L-Asp 15 mM, read-out: NADH / KM

N[C@@H](CC(=O)O)C(=O)O [compound 3, L-Asp]
Km (mODH-45; [7]): 21500 ± 5300 µM
Km (mODH-582 [1]; [7]): 24800 ± 4600 µM
Km (mODH-47; [7]): 1200 ± 300 µM
Km (mODH-55; [7]): 1500 ± 200 µM
Km (mODH-49; [7]): 15000 ± 2300 µM
Km (mODH-48; [7]): 500 ± 100 µM

NC(=O)C1=CN([C@@H]2O[C@H](COP(=O)(O)OP(=O)(O)OC[C@H]3O[C@@H](n4cnc5c(N)ncnc54)[C@H](OP(=O)(O)O)[C@@H]3O)[C@@H](O)[C@H]2O)C=CC1 [NADPH]
Km (mODH-45; [8]): 118 ± 24 µM
Km (mODH-582 [1]; [8]): 318 ± 112 µM
Km (mODH-47; [8]): 93 ± 21 µM
Km (mODH-55; [8]): 68 ± 13 µM
Km (mODH-49; [8]): 85 ± 17 µM
Km (mODH-48; [8]): 17 ± 7 µM

N[C@@H](Cc1ccccc1)C(=O)O [L-Phe]
Km (mODH-582 [2]): 32700 ± 4700 µM

NC(=O)C1=CN([C@@H]2O[C@H](COP(=O)(O)OP(=O)(O)OC[C@H]3O[C@@H](n4cnc5c(N)ncnc54)[C@H](O)[C@@H]3O)[C@@H](O)[C@H]2O)C=CC1 [NADH]
Km (mODH-45; [9]): 447 ± 64 µM
Km (mODH-582 [1]; [9]): 29 ± 11 µM
Km (mODH-55; [9]): 442 ± 63 µM
Km (mODH-49; [9]): 1830 ± 423 µM
Km (mODH-48; [9]): 93 ± 15 µM

B1: ArODH (Arthrobacter sp. 1C) (protein)
chain: MIESKTYAVLGLGNGGHAFAAYLALKGQSVLAWDIDAQRIKEIQDRGAIIAEGPGLAGTAHPDLLTSDIGLAVKDADVILIVVPAIHHASIAANIASYISEGQLIILNPGATGGALEFRKILRENGAPEVTIGETSSMLFTCRSERPGQVTVNAIKGAMDFACLPAAKAGWALEQIGSVLPQYVAVENVLHTSLTNVNAVMHPLPTLLNAARCESGTPFQYYLEGITPSVGSLAEKVDAERIAIAKAFDLNVPSVCEWYKESYGQSPATIYEAVQGNPAYRGIAGPINLNTRYFFEDVSTGLVPLSELGRAVNVPTPLIDAVLDLISSLIDTDFRKEGRTLEKLGLSGLTAAGIRSAVE
notes: N-terminal His-tag, pET14b, E. coli BL21(DE3); codon-optimised synthetic gene
Km (purified protein [3]): 1400 ± 500 µM
kcat (purified protein [3]): 861 ± 70 s⁻¹
kcat/Km (purified protein [3]): 630000 M⁻¹ s⁻¹
Km [4]: 18100 ± 4500 µM
Vmax [4]: 0.001 µmol/min
kcat [4]: 11.1 ± 1.5 s⁻¹
Km [5]: 292 ± 77 µM
Vmax [5]: 0.11 µmol/min
kcat [5]: 1240 ± 174 s⁻¹

B2: ArODH (Arthrobacter sp. 1C; A111R/N198G) (protein)
chain: B1 chain with A111R, N198G
Km (purified protein [6]): 58300 ± 19600 µM
kcat (purified protein [6]): 2.8 s⁻¹
kcat/Km (purified protein [6]): 50 M⁻¹ s⁻¹
